From publication PMC4291083, “Ex Vivo Characterization of a Novel Iodine-123-Labelled Aminomethylchroman as a Potential Agonist Ligand for SPECT Imaging of Dopamine D2/3 Receptors” (International Journal of Molecular Imaging, 2014)
Marks after values point to notes of the source that are not given here.

Test: Biodistribution studies in rats
Assay type: in vivo, Wistar rats
Conditions: for uptake ratio Frontal cortex/cereb. / uptake ratio Hippocampus/cereb. / uptake ratio Hypothalamus/cereb. / uptake ratio Midbrain/cereb. / uptake ratio Olfactory b./cereb. / uptake ratio Pons/medulla/cereb. / uptake ratio Striatum/cereb. / uptake ratio Thalamus/cereb. / uptake ratio Pituitary/cereb.: rats; for 123I radioactivity, Blood / 123I radioactivity, Cerebellum / 123I radioactivity, Fat: male rats
Description: [^123I]-1 (SA ≥ 37 MBq/nmol) was received after radiolabelling in an isotonic acetate (9% EtOH) buffer (pH 4.8). The solution was passed through a membrane filter (0.2 μm) and was diluted to the proper concentrations. Male Wistar rats (approximately 250 g body weight, obtained from Harlan/Charles River, Zeist, Netherlands) received an intravenous injection in the tail vein of approximately 3.7 MBq/0.4 mL buffer of [^123I]-1 under O2/CO2 anaesthesia. Distribution to the tissue was measured 15 min, 30 min, and 1, 2, 3, 4, and 24 h after the injection to determine the time course of uptake in several organs, including the brain. Four rats were killed at each time point via bleeding by heart puncture (to minimize contribution of blood activity) under O2/CO2 anaesthesia followed by cervical dislocation. Brain regions (cerebellum, frontal and prefrontal cortex, olfactory bulbs, pituitary, medulla with pons, midbrain, striatum, hypothalamus, hippocampus, and thalamus) and various peripheral tissues (heart, lung, liver, spleen, kidney, muscle, fat, and thymus) were quickly excised and weighted. The activity of [^123I] was assayed in a gamma counter, and data was corrected for decay and the amount of radioactivity was presented as percentage of the injected dose, multiplied by the body weight in kilograms, per gram tissue or blood. Selective uptake in the striatum was determined by calculating the ratio of radioactivity in the striatum in relation to that in the cerebellum, since the density of dopamine D2/3 receptor is negligible in this brain area in rats.

**Q.** Which results are given for Oc1ccc2c(c1)O[C@@H](CNCc1ccc([123I])cc1)CC2 [[^123I]-1]?
**A.** uptake ratio Frontal cortex/cereb. (15 min after i.v. injection): 2.962 ± 1.817; uptake ratio Hippocampus/cereb. (15 min after i.v. injection): 0.870 ± 0.303; uptake ratio Hypothalamus/cereb. (15 min after i.v. injection): 1.512 ± 0.546; uptake ratio Midbrain/cereb. (15 min after i.v. injection): 3.712 ± 4.715; uptake ratio Olfactory b./cereb. (15 min after i.v. injection): 0.431 ± 0.330; uptake ratio Pons/medulla/cereb. (15 min after i.v. injection): 1.470 ± 0.520; uptake ratio Striatum/cereb. (15 min after i.v. injection): 1.455 ± 1.265; uptake ratio Thalamus/cereb. (15 min after i.v. injection): 1.670 ± 0.908; uptake ratio Pituitary/cereb. (15 min after i.v. injection, only 1 sample): 1.157^*; uptake ratio Frontal cortex/cereb. (30 min after i.v. injection): 1.543 ± 0.142; uptake ratio Hippocampus/cereb. (30 min after i.v. injection): 1.479 ± 0.466; uptake ratio Hypothalamus/cereb. (30 min after i.v. injection): 1.139 ± 0.014; uptake ratio Midbrain/cereb. (30 min after i.v. injection): 1.144 ± 0.051; uptake ratio Olfactory b./cereb. (30 min after i.v. injection): 0.893 ± 0.067; uptake ratio Pituitary/cereb. (30 min after i.v. injection): 2.262 ± 0.233; uptake ratio Pons/medulla/cereb. (30 min after i.v. injection): 1.036 ± 0.212; uptake ratio Striatum/cereb. (30 min after i.v. injection): 1.294 ± 0.061; uptake ratio Thalamus/cereb. (30 min after i.v. injection): 1.325 ± 0.074; mean ratio of striatum/cerebellum binding (30 min to 4 h p.i., i.v., Wistar rats): about 1.3; uptake ratio Frontal cortex/cereb. (1 h after i.v. injection): 1.154 ± 0.095; uptake ratio Hippocampus/cereb. (1 h after i.v. injection): 1.390 ± 0.210; uptake ratio Hypothalamus/cereb. (1 h after i.v. injection): 1.189 ± 0.132; uptake ratio Midbrain/cereb. (1 h after i.v. injection): 1.207 ± 0.109; uptake ratio Olfactory b./cereb. (1 h after i.v. injection): 1.007 ± 0.050; uptake ratio Pituitary/cereb. (1 h after i.v. injection): 2.502 ± 0.883; uptake ratio Pons/medulla/cereb. (1 h after i.v. injection): 1.218 ± 0.109; uptake ratio Striatum/cereb. (1 h after i.v. injection): 1.246 ± 0.103; uptake ratio Thalamus/cereb. (1 h after i.v. injection): 1.243 ± 0.042; uptake ratio Frontal cortex/cereb. (2 h after i.v. injection): 1.145 ± 0.079; uptake ratio Hippocampus/cereb. (2 h after i.v. injection): 1.301 ± 0.047; uptake ratio Hypothalamus/cereb. (2 h after i.v. injection): 1.116 ± 0.085; uptake ratio Midbrain/cereb. (2 h after i.v. injection): 1.168 ± 0.080; uptake ratio Olfactory b./cereb. (2 h after i.v. injection): 1.125 ± 0.089; uptake ratio Pituitary/cereb. (2 h after i.v. injection): 4.399 ± 2.113; uptake ratio Pons/medulla/cereb. (2 h after i.v. injection): 1.205 ± 0.016; uptake ratio Striatum/cereb. (2 h after i.v. injection): 1.155 ± 0.069; uptake ratio Thalamus/cereb. (2 h after i.v. injection): 1.200 ± 0.067; uptake ratio Frontal cortex/cereb. (3 h after i.v. injection): 1.315 ± 0.360; uptake ratio Hippocampus/cereb. (3 h after i.v. injection): 1.294 ± 0.112; uptake ratio Hypothalamus/cereb. (3 h after i.v. injection): 1.326 ± 0.053; uptake ratio Midbrain/cereb. (3 h after i.v. injection): 1.224 ± 0.090; uptake ratio Olfactory b./cereb. (3 h after i.v. injection): 1.314 ± 0.150; uptake ratio Pituitary/cereb. (3 h after i.v. injection): 3.352 ± 1.490; uptake ratio Pons/medulla/cereb. (3 h after i.v. injection): 1.310 ± 0.114; uptake ratio Striatum/cereb. (3 h after i.v. injection): 1.331 ± 0.126; uptake ratio Thalamus/cereb. (3 h after i.v. injection): 1.582 ± 0.101; uptake ratio Frontal cortex/cereb. (4 h after i.v. injection): 0.865 ± 0.580; uptake ratio Hippocampus/cereb. (4 h after i.v. injection): 1.035 ± 0.114; uptake ratio Hypothalamus/cereb. (4 h after i.v. injection): 1.332 ± 0.103; uptake ratio Midbrain/cereb. (4 h after i.v. injection): 1.097 ± 0.086; uptake ratio Olfactory b./cereb. (4 h after i.v. injection): 1.333 ± 0.124; uptake ratio Pituitary/cereb. (4 h after i.v. injection): 3.570 ± 2.544; uptake ratio Pons/medulla/cereb. (4 h after i.v. injection): 1.214 ± 0.133; uptake ratio Striatum/cereb. (4 h after i.v. injection): 1.156 ± 0.080; uptake ratio Thalamus/cereb. (4 h after i.v. injection): 1.351 ± 0.175; uptake ratio Frontal cortex/cereb. (24 h after i.v. injection): 1.818 ± 0.372; uptake ratio Hippocampus/cereb. (24 h after i.v. injection): 1.031 ± 0.090; uptake ratio Hypothalamus/cereb. (24 h after i.v. injection): 1.989 ± 0.574; uptake ratio Midbrain/cereb. (24 h after i.v. injection): 1.426 ± 0.204; uptake ratio Olfactory b./cereb. (24 h after i.v. injection): 1.444 ± 0.163; uptake ratio Pituitary/cereb. (24 h after i.v. injection): 6.021 ± 0.577; uptake ratio Pons/medulla/cereb. (24 h after i.v. injection): 1.278 ± 0.211; uptake ratio Striatum/cereb. (24 h after i.v. injection): 2.023 ± 0.872; uptake ratio Thalamus/cereb. (24 h after i.v. injection): 2.473 ± 0.599; 123I radioactivity, Blood (15 min after i.v. injection): 0.291 ± 0.190 %ID × kg/g; 123I radioactivity, Blood (30 min after i.v. injection): 0.486 ± 0.291 %ID × kg/g; 123I radioactivity, Blood (1 h after i.v. injection): 0.557 ± 0.087 %ID × kg/g; 123I radioactivity, Blood (2 h after i.v. injection): 0.446 ± 0.105 %ID × kg/g; 123I radioactivity, Blood (3 h after i.v. injection): 0.428 ± 0.082 %ID × kg/g; 123I radioactivity, Blood (4 h after i.v. injection): 0.393 ± 0.136 %ID × kg/g; 123I radioactivity, Blood (24 h after i.v. injection): 0.081 ± 0.049 %ID × kg/g; 123I radioactivity, Cerebellum (15 min after i.v. injection): 0.858 ± 0.384 %ID × kg/g; 123I radioactivity, Cerebellum (30 min after i.v. injection): 1.496 ± 0.478 %ID × kg/g; 123I radioactivity, Cerebellum (1 h after i.v. injection): 0.627 ± 0.035 %ID × kg/g; 123I radioactivity, Cerebellum (2 h after i.v. injection): 0.196 ± 0.037 %ID × kg/g; 123I radioactivity, Cerebellum (3 h after i.v. injection): 0.178 ± 0.061 %ID × kg/g; 123I radioactivity, Cerebellum (4 h after i.v. injection): 0.087 ± 0.043 %ID × kg/g; 123I radioactivity, Cerebellum (24 h after i.v. injection): 0.014 ± 0.002 %ID × kg/g; 123I radioactivity, Fat (15 min after i.v. injection): 3.080 ± 2.656 %ID × kg/g; 123I radioactivity, Fat (30 min after i.v. injection): 0.674 ± 0.102 %ID × kg/g; 123I radioactivity, Fat (1 h after i.v. injection): 0.509 ± 0.024 %ID × kg/g; 123I radioactivity, Fat (2 h after i.v. injection): 0.365 ± 0.094 %ID × kg/g
